Legend:
[1] = test system: HCV Genotype 1 (either Genotype 1a or Genotype 1b); assay: Rising multiple dose study in non-responder patients, HCV-RNA viral load by RT-PCR; format: in vivo
Experimental: A rising multiple dose study was conducted in four groups of non-responder patients in which 100, 200 and 400 mg BID and 400 mg TID dosages of the compound of Formula la were administered for 14 days. […] The methodology used was a randomized, placebo controlled, multi-center, third-party-blind, multiple-dose study of the compound of Formula Ia in non-responders conducted in accordance with Good Clinical Practices. For the purpose of this study, it should be noted that the non-responders also were patients in whom one or more symptoms were established in association with, or the possibility of one or more symptoms was suspected of in association with, HCV Genotype 1 (either Genotype 1a or Genotype 1b) specifically. In order to measure viral load, the Hepatitis C virus RNA (HCV-RNA) is measured by extracting total RNA from plasma or serum samples and using an in-house real-time reverse transcriptase polymerase chain reaction (RT-PCR) assay with a lower limit of detection of 29 International Units (IU)/mL. The amplification target is the 5′-Untranslated region (UTR) of the HCV genome. An internal RNA control is added to each sample to assess the efficiency of RNA extraction. Appropriate negative and positive controls are added in each assay run. The assay method has been validated against the WHO International Standard for HCV. The HCV-RNA amount in a sample is reported as copies of HCV-RNA per mL of sample and also as HCV IU per mL of sample. When <100 copies of HCV-RNA per mL are found, the HCV-RNA is considered to be undetectible.

[2] = test system: HCV Genotype 1 (1a or 1b); assay: Parallel group, rising multiple-dose, 3 period crossover study in non-responders, HCV-RNA viral load; format: in vivo, patients
Experimental: In order to measure viral load, the Hepatitis C virus RNA (HCV-RNA) is measured by extracting total RNA from plasma or serum samples and using an in-house real-time reverse transcriptase polymerase chain reaction (RT-PCR) assay with a lower limit of detection of 29 International Units (IU)/mL. The amplification target is the 5′-Untranslated region (UTR) of the HCV genome. An internal RNA control is added to each sample to assess the efficiency of RNA extraction. Appropriate negative and positive controls are added in each assay run. The assay method has been validated against the WHO International Standard for HCV. The HCV-RNA amount in a sample is reported as copies of HCV-RNA per mL of sample and also as HCV IU per mL of sample. When <100 copies of HCV-RNA per mL are found, the HCV-RNA is considered to be undetectible.
A second study was commenced in patients having detectible levels ([…] copies per mL tissue or fluid) HCV Genotype 1 (1a or 1b) and whom were already established as non-responders from previous trials.
The methodology of the study was a parallel group, rising, multiple-dose, 3 period crossover (within each group) study in which subjects are treated with pegylated interferon (PEG-Intron, commercially available from Schering-Plough), 1.5 mcg/kg of the compound of Formula Ia or combination treatment of PEG-Intron 1.5 mcg/kg and the compound of Formula Ia. The doses of the compound of Formula Ia used for each group were 200 mg TID or 400 mg TID.
Twelve patients were treated in a random sequence with each 200 mg TID dose of the compound of Formula Ia alone for 7 days, PEG-Intron once weekly for two doses, and a combination treatment of 200 mg TID of the compound of Formula la plus PEG-Intron for 14 days. Preliminary results from the 200 mg TID dose group are illustrated in FIG. 2.

`CC(C)(C)NC(=O)N[C@H](C(=O)N1C[C@H]2[C@@H]([C@H]1C(=O)NC(CC1CCC1)C(=O)C(N)=O)C2(C)C)C(C)(C)C` (mixture of isomers) [Formula Ia] was tested. Which “average maximum reduction of viral load from baseline” value ([1]; 400 mg TID for 14 days, monotherapy, 10 non-responder patients) did it give?
Its value is 2 logs.

And the “effect of monotherapy on viral load” value ([1]; 100, 200 and 400 mg BID and 400 mg TID for 14 days)?
The value was “reduced viral load in all patients”.

What about the “HCV-RNA viral load following discontinuation of treatment” value ([1]; after the 14-day treatment, all patients) of the same compound?
Its value is “returned to baseline levels in all patients”.

What about the “mean maximum HCV-RNA reduction” value ([2]; 200 mg TID alone for 7 days, preliminary results) of the same compound?
Its value is 0.85 logs.

And the “average maximum reduction in HCV-RNA viral load” value ([2]; 200 mg TID in combination with PEG-Intron 1.5 mcg/kg weekly, two weeks of treatment)?
The value was 2.4 logs.

And the “course of viral load in the second week” value ([2]; 200 mg TID in combination with PEG-Intron, 14 days)?
The value was “viral load continued to decline in the second week”.

What about the “HCV-RNA viral load level of one patient at the end of therapy (undetectible)” value ([2]; 200 mg TID in combination with PEG-Intron, end of 14 days, one patient (decrease by 4.5 logs)) of the same compound?
Its value is < 100 copies per mL of tissue or fluid.
